Assays:
[1] = system: 4T1 mouse breast tumor cells; experiment: Boyden chamber cell migration assay with 4T1 tumor cells; format: cell-based; conditions: chamber cell migration, 6-8 h; average of three experiments; read-out: IC50 (4T1 tumor cells)
Experimental: The biological evaluation of the compounds (in terms of their ability to inhibit cell migration) was accomplished in a Boyden chamber cell migration assay. In this assay, mouse breast tumor cells (4T1 cells) or endothelial cells (HUVECs) are seeded on the upper chamber of a transwell insert. Growth factor-containing serum is added to the lower chamber.
Chamber Cell Migration Assay (Tables 4 and 6): Cell migrations were assayed with Boyden chambers [8.0 μm pore size, polyethylene terephthalate membrane, FALCON cell culture insert (Becton-Dickinson)]. 4T1 mouse breast tumor cells or HUVECs were trypsinized and counted. 300 μl of 5-10×10^4 cells in serum-free medium was added to the upper chamber and 500 μl of medium with 10% fetal bovine serum (FBS) was added to the lower chamber. […] Cells on the inside of the transwell inserts were removed with a cotton swab, and cells on the underside of the insert were fixed and stained. Photographs of three random regions were taken and the number of cells was counted to calculate the average number of cells that have transmigrated.

[2] = Mouse plasma stability study (HPLC); format: in vitro ADME
Experimental: Mouse Plasma Stability Studies (Table 5): HPLC conditions: The sample is injected and separated using an Inertsil ODS3 6u 3×150 mm column with a mobile phase of MeCN and water (50% for migrastatin) at a flow of 0.4 mL/min, monitored at 220 nm at 0.02 AUFS (the retention time for migrastatin is ca. 4 min, the identity of this peak was confirmed by mass spectral analysis). Incubation and sample preparation conditions: A solution (ca. 30 mM) of chemical compound (Table 5) in DMSO is prepared. 2 μL of the solution is added to a mixture containing 200 μL of mouse plasma and 800 μL of PBS. The resulting solution is put into a water bath at 37° C., and 100 μL of sample is withdrawn at 10, 20, 30, 45, and 60 min. The precipitate is removed by centrifugation and 20 μL of the supernatant is injected onto the HPLC.

[3] = system: HUVECs (human umbilical vein endothelial cells); experiment: Boyden chamber cell migration assay with HUVECs; format: cell-based; conditions: chamber cell migration; average of three experiments; read-out: IC50 (HUVEC)
Experimental: Chamber Cell Migration Assay (Tables 4 and 6): Cell migrations were assayed with Boyden chambers [8.0 μm pore size, polyethylene terephthalate membrane, FALCON cell culture insert (Becton-Dickinson)]. 4T1 mouse breast tumor cells or HUVECs were trypsinized and counted. 300 μl of 5-10×10^4 cells in serum-free medium was added to the upper chamber and 500 μl of medium with 10% fetal bovine serum (FBS) was added to the lower chamber. The transwells were incubated for 6-8 h at 37° C. with different concentrations of chemical compound in both upper and lower chamber. Cells on the inside of the transwell inserts were removed with a cotton swab, and cells on the underside of the insert were fixed and stained. Photographs of three random regions were taken and the number of cells was counted to calculate the average number of cells that have transmigrated.

4T1 tumor cells = experiment: Cell proliferation assay (MTT); conditions: MTT, 48 h; up to 20 μM
Experimental: Cell Proliferation Assay: 4×10^4 of 4T1 tumor cells in RPMI-1640 medium containing 10% FBS were seeded into wells of 96-multiwell plates (Becton-Dickinson) in the presence or absence of chemical compounds and then incubated at 37° C. for 48 h. An MTT kit (Cell Proliferation Kit I, Roche) (a colorimetric assay) was used to quantify cell proliferation and viability. The number of living cells, thus the total metabolic activity, directly correlates to the amount of purple formazan crystals formed (monitored by the absorbance).

[4] = system: 4T1 mouse breast tumor cells; experiment: Wound-healing assay with 4T1 cells (FIG. 6); format: cell-based; conditions: with serum; 200 μM; overnight
Description: In the wound healing assay, standard scratches (i.e., wounds) were made through a confluent 4T1 cell layer. In the absence of serum, cells would not migrate across the empty space created by application of the scratch. Upon addition of serum containing migration-enabling factors, migration of 4T1 cells across the scratch was induced. Exposure to these cells to inventive compounds allowed the evaluation of the cell migration inhibitory activity of these compounds.
Wound-Healing Assay (See FIG. 6). 4T1 mouse breast tumor cells in RPMI-1640 medium containing 10% fetal bovine serum (FBS) were seeded into wells of 24-multiwell plates (Becton-Dickinson). After cells grew to confluence, wounds were made with sterile pipette tips. Cells were washed with Phosphate Buffered Saline (PBS) and refreshed with growth medium containing different concentrations of chemical compounds. After overnight incubation at 37° C., cells were fixed and photographed.

[5] = system: 4T1 tumor lung metastasis; experiment: 4T1 tumor lung metastasis in syngeneic mice (6-thioguanine clonogenic assay); format: in vivo, BALB/c mice; conditions: for lung metastasis colonies: lungs Day 28, mean and standard deviation
Description: Inhibition of metastasis of mouse breast tumors by migrastatin alogs in mice. 4T1 mouse breast tumor cell line was isolated from a single spontaneously arising mammary tumor from a BALB/BfC3H mouse (MMTV+).^62 The 4T1 tumor closely mimics human breast cancer in its anatomical site, immunogenecity, growth characteristics, and metastatic properties.^63 From the mammary gland, 4T1 tumor spontaneously metastasizes to a variety of target organs including the lung, bone, brain, and liver through primarily a hematogenous rout.^64
To assess the efficacy of therapeutic application of migrastatin analogs in the 4T1 murine mammary carcinoma models, we administered migrastatin analogs (macroketone and macrolactam) to BALB/c mice carrying the 4T1 tumors.
(§1) Female BALB/c mice (6-8 week old) were purchased from the Jackson Laboratory (Bar Harbor, Me.). All mice were housed at the Weill Medical College of Cornell University Animal Facilities in accordance with the Principles of Animal Care (NIH publication no. 85-23, revised 1985). 4T1 tumor cells (1×10^5) were injected subcutaneously into the abdominal mammary gland area of mice in 0.1 ml of a single-cell suspension in phosphate buffered saline (PBS) on Day 0. The dosage of tumor implantation was empirically determined to give rise to tumor of ˜10 mm in diameter in untreated wild type mice in 21-23 days. On Day 7, when the tumors averaged in size ˜4-5 mm in diameter, migrastatin analogs or control PBS saline were given every day by intraperitoneal injection at 10 mg/kg or 20 mg/kg per mouse until Day 25. On Day 28, the mice were sacrificed. This regiment of migrastatin analogs was well tolerated with no signs of overt toxicity. Every group included five mice. Primary tumors were measured using electronic calipers on the day when the mice were sacrificed. Tumor size was the square root of the product of two perpendicular diameters. Numbers of metastatic 4T1 cells in lung were determined by the clonogenic assay.^63 In brief, lungs were removed from each mouse on Day 28, finely minced and digested in 5 ml of enzyme cocktail containing 1× PBS and 1 mg/ml collagenase type IV for 2 hours at 37° C. on a platform rocker. After incubation, samples were filtered through 70 uM nylon cell strainers and washed twice with PBS. Resulting cells were suspended and plated serially diluted in 10 cm tissue culture dishes in medium RPMI1640 containing 60 uM thioguanine for clonogenic growth. 6-Thioguanine-resistant tumor cells formed foci after 14 days, at which time they were fixed with methanol and stained with 0.03% methylene blue for counting.
Treatment 4T1 tumor lung metaotmis in smgencie mice with Kigrastatin analogs (See, FIG. 4). 4T1 tumor cells (10^5) were injected s.c. in the abdominal mammary gland with 0.1 ml of a single-cell suspension. Macroketone or macrolactam at 10 mg/kg or 20 mg/kg was given i.p. on Day 7 when the tumor size was about 5 mm in diameter, and everyday until Day 25. On Day 28, the mice were sacrificed. Each group comprised five mice. Lung metastasis was measured by the 6-thiogunine clonogenic assay. The mean and standard deviation are presented. In the control group (daily PBS injection), there were 61300±18900 colonies.

4T1 tumors = experiment: Effect on 4T1 primary tumor growth in mice; format: in vivo, BALB/c mice; conditions: 10 mg/kg i.p. daily Day 7-25; tumors measured Day 28
Experimental: as §1, with “This regiment of migrastatin analogs was well tolerated with no signs of overt toxicity. Every group included five mice.” left out, “Tumor size was the square root of the product of two perpendicular diameters.” left out, “After incubation, samples were filtered through 70 uM nylon cell strainers and washed twice with PBS. Resulting cells were suspended and plated serially diluted in 10 cm tissue culture dishes in medium RPMI1640 containing 60 uM thioguanine for clonogenic growth. 6-Thioguanine-resistant tumor cells formed foci after 14 days, at which time they were fixed with methanol and stained with 0.03% methylene blue for counting.” left out
Effect of migrastatin analogs on 4T1 tumor cell growth (See, FIG. 5). […] On Day 28, primary tumors were measured using electronic calipers. […]

SMILES	IC50 [1]	stability (t1/2, mouse plasma) ([2]; mouse plasma/PBS, 37° C., sampled up to 60 min)	stability (mouse plasma), in words ([2]; stable = intensity of HPLC signal unchanged over 60 min of incubation)	IC50 [3]	cytotoxic or anti-proliferative effects on 4T1 cells, in words (4T1 tumor cells)	inhibition of 4T1 cell migration across the scratch, in words [4]	inhibition of lung metastasis ([5]; 10 mg/kg i.p. daily Day 7-25)	lung metastasis colonies ([5]; 10 mg/kg i.p. daily Day 7-25)	inhibition of lung metastasis ([5]; 20 mg/kg i.p. daily Day 7-25)	lung metastasis colonies ([5]; 20 mg/kg i.p. daily Day 7-25)	effect on growth of 4T1 primary tumors, in words (4T1 tumors)
COC1C=CCCCCC(=O)OCC(C)=CC(C)C1O (stereo not shown) [macrolactone (48), Macrolactone]	24 nM	<5 min	hydrolyzed rapidly	125 nM	did not have any cytotoxic or anti-proliferative effects up to 20 μM	almost completely inhibited cell migration across the scratch	–	–	–	–	–
COC1C=CCCCCC(=O)CCC(C)=CC(C)C1O (stereo not shown) [macroketone (60), Macroketone]	100 nM	–	–	12000 nM	–	–	~94%	3875±2525 colonies	~99%	650±575 colonies	minor effect on tumor growth
